This is an account of results in US11236042B2, “Methylmenthol derivative and cool-sensation imparter composition containing same” (TAKASAGO INTERNATIONAL CORPORATION, priority 2017, dated 2022).

Molecules are shown by their SMILES.

In one data set the target is T1, human TRPM8 (Homo sapiens, UniProt Q7Z2W7).
T1 construct: The full-length human TRPM8 gene was amplified from plasmid RC220615 (manufactured by Origene) using a PCR method; host or cells: Flp-In T-REx 293 cells ('Flp-In293293 cells' [sic]), pcDNA5/FRT/TO, doxycycline-induced
As to the kind of experiment: Evaluation of human TRPM8 activity (cool-feeling intensity), calcium fluorescence in stable expression cells. Type of data set: cell-based. The note with it: Fluo4-AM, 32° C., read-out: EC50 value in TRPM8 activation action. The method, then: It is common that a compound having a cooling effect such as menthol generally induces a cool-feeling by activating melastatin transient receptor potential channel 8 (TRPM8) as a cold stimulation receptor (for example, see J. Neurobiol. (2004), Vol. 61, PP. 3-12). Therefore, in order to evaluate the cool-feeling intensity, EC50 values of the exemplary compounds obtained in the Examples in TRPM8 activation actions were evaluated according to the following procedures.
The full-length human TRPM8 gene was amplified from plasmid RC220615 (manufactured by Origene) using a PCR method. The obtained PCR product was subcloned into pcDNA5/FRT/TO (manufactured by Thermo Fisher Scientific K.K.), and then it was introduced into Flp-In293293 cells (manufactured by Thermo Fisher Scientific K.K.) by using a Flp-InT-REx system (manufactured by Thermo Fisher Scientific K.K.), so that a human TRPM8 stable expression cell line was prepared.
The cultured human TRPM8 stable expression cells were seeded at a ratio of 50,000 cells/well to a poly-D-lysine-coated 96-well microplate (manufactured by Corning Incorporated), 1 μg/mL of doxycycline (manufactured by Takara Bio Inc.) was added thereto, and then the seeded cells were cultured at 37° C. for one night, so that the expression of the human TRPM8 was induced.
The culture solution was replaced with a buffer solution, and then, a fluorescent calcium indicator (Fluo4-AM: manufactured by Dojindo) was added thereto, the cells were incubated at 37° C. for 30 minutes, and they were transferred to a fluorescent microplate reader (FlexStation3: Molecular Devices, LLC.). Exemplary compounds were added in a final concentration range of 0.1 μM to 1000 μM, and the changes in fluorescence having a wavelength of 525 nm when excited at a wavelength of 485 nm were measured at a device temperature of 32° C., so as to calculate EC50 values.

A short description of data set [1]: Sensory evaluation of 30 ppm aqueous solution by three flavorists. It counts as in vivo, human. The conditions noted are these: for intensity of cool-feeling: mouth rinsed and spat out; for intensity of cool-feeling compared with comparative compounds: 30 ppm aqueous solutions. On the procedure:
The sensory evaluation was performed by comparing the exemplary compound (1-1) with the so far known comparative compounds 1 to 4. Comparative compounds 1, 3, and 4 were synthesized according to the method described in WO 2016/153011 A1, and comparative compound 2 was synthesized according to the method described in WO 2005/020897 A1. The exemplary compound (1-1) and comparative compounds 1 to 4 were separately prepared into a 30 ppm aqueous solution, and the aqueous solution was used to perform the evaluation.
The evaluation was performed by three flavorists. The aqueous solution was taken into the mouth and spat out after the mouth was rinsed, and intensity, persistence, and quality of a cool-feeling in the oral cavity were evaluated.
A 30 ppm aqueous solution of the exemplary compound (1-2) was prepared and used to perform the evaluation.
A 30 ppm aqueous solution of the exemplary compound (1-3) was prepared and used to perform the evaluation.
A 30 ppm aqueous solution of the exemplary compound (1-5) was prepared and used to perform the evaluation.

T1 sequence (Q7Z2W7 whole entry): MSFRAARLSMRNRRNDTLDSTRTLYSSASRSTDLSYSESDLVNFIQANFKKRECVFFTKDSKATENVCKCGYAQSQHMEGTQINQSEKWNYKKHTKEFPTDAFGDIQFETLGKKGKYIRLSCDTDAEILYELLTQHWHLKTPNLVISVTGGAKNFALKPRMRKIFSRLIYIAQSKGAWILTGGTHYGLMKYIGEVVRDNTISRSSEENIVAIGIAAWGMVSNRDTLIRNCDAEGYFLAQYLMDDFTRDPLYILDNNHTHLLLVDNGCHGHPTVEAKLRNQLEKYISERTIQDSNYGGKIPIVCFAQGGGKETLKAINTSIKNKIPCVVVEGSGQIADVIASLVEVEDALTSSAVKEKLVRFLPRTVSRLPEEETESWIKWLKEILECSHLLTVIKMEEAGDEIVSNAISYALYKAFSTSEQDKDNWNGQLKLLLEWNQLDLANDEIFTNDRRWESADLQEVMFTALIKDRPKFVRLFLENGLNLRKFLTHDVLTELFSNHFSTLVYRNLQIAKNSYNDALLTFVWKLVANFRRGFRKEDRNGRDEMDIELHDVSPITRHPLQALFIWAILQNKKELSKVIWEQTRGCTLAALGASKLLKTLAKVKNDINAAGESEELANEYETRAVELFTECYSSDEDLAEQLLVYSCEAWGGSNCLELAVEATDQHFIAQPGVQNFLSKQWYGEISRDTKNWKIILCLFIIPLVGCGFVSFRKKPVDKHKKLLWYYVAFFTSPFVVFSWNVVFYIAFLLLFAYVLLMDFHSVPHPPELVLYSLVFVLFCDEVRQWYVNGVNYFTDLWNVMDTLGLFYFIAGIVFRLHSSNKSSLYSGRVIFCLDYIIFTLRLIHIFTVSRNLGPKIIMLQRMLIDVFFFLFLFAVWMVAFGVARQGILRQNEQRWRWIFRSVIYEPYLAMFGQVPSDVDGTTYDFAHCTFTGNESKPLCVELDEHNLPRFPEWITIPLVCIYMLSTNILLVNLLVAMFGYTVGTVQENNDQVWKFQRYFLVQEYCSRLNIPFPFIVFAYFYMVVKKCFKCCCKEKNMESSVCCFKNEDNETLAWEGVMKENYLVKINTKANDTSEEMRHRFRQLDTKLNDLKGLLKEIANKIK

As usually defined, the EC50 is the concentration at which the effect is half-maximal. Consider `CC(C)C1CCC(C)(C)CC1C(=O)NCC(O)c1ccccc1` (stereo not shown) [1-1], for which the EC50 at human TRPM8 was determined as 41 nM.

`CC(C)C1CCC(C)(C)CC1C(=O)NC[C@@H](O)c1ccccc1` (stereo partly shown) [1-2]: the EC50 on human TRPM8 turned out to be 24.1 nM.

For the compound `CC(C)C1CCC(C)(C)CC1C(=O)NC[C@H](O)c1ccccc1` (stereo partly shown) [1-3], on human TRPM8, the EC50 stood at 73.6 nM.

On to `CC(=O)OC(CNC(=O)C1CC(C)(C)CCC1C(C)C)c1ccccc1` (stereo not shown) [1-4], for which the EC50 on human TRPM8 is 541 nM.

For `CC(C)C1CCC(C)(C)CC1C(=O)NCC(=O)c1ccccc1` (stereo not shown) [1-5], at human TRPM8, the EC50 came out at 149 nM.

On to `CC(CNC(=O)C1CC(C)(C)CCC1C(C)C)c1ccccc1` (stereo not shown) [1-6], for which the EC50 at human TRPM8 stood at 388 nM.

`CC(C)C1CCC(C)(C)CC1C(=O)NC[C@@H](C)c1ccccc1` (stereo partly shown) [1-7]: the EC50 at human TRPM8 was 555 nM.

As to `CC(C)C1CCC(C)(C)CC1C(=O)NC[C@H](C)c1ccccc1` (stereo partly shown) [1-8], on human TRPM8, the EC50 came to 610 nM.

As to `CC(C)C1CCC(C)(C)CC1C(=O)NCCc1ccc(O)cc1` (stereo not shown) [1-9], at human TRPM8, the EC50 worked out at 29.8 nM.

In the case of `COc1ccc(CCNC(=O)C2CC(C)(C)CCC2C(C)C)cc1` (stereo not shown) [1-10], the EC50 at human TRPM8 is 158 nM.

With `CC(C)C1CCC(C)(C)CC1C(=O)NCCc1ccc(O)c(O)c1` (stereo not shown) [1-11], the half-maximal effective concentration (EC50) on human TRPM8 is 113 nM.

As for `COc1ccc(CCNC(=O)C2CC(C)(C)CCC2C(C)C)cc1OC` (stereo not shown) [1-12], the EC50 on human TRPM8 is 403 nM.

On to `CC(C)C1CCC(C)(C)CC1C(=O)NCCc1ccccc1` (stereo not shown) [1-13], for which, on human TRPM8, the EC50 was determined as 50.2 nM.

As to `CC(C)[C@@H]1CC[C@@H](C)CC1C(=O)NCC(O)c1ccccc1` (stereo partly shown) [Comparative compound 2, reference compound], in data set [1] (30 ppm aqueous solution), the “persistence of cool-feeling” value is on record as “persistent” and the intensity of cool-feeling entry is reported as “very strong”. The “intensity of cool-feeling compared with comparative compounds” value in data set [1] is “same cooling intensity and persistence as those of the exemplary compound (1-1)”.

`CC(C)C1CCC(C)(C)CC1C(=O)NCC(O)c1ccccc1` (stereo not shown) [Exemplary Compound 1-1, N-(2-hydroxy-2-phenylethyl)-2-isopropyl-5,5-dimethyl cyclohexane carboxamide]: in data set [1] (30 ppm aqueous solution), the “persistence: cool-feeling lasted for” value was ≥ 60 min, the “start of the cool-feeling” value is on record as “clearly faster than the comparative compounds 1 to 4” and the intensity of cool-feeling result was “very strong”. In addition, the “intensity of cool-feeling compared with comparative compounds” value in data set [1] was “clearly stronger than those of the comparative compounds 3 and 4”.

For the compound `CC(C)C1CCC(C)(C)CC1C(=O)NC[C@@H](O)c1ccccc1` (stereo partly drawn) [Exemplary Compound 1-2, N—((S)-2-hydroxy-2-phenylethyl)-2-isopropyl-5,5-dimethyl cyclohexane carboxamide], in data set [1] (30 ppm aqueous solution), the “persistence: cool-feeling lasted for” value was ≥ 90 min, the “start of the cool-feeling” value is listed as “strong cool-feeling was felt when the exemplary compound (1-2) was put in the mouth” and the intensity of cool-feeling entry is given as “very strong”.

Consider `CC(C)C1CCC(C)(C)CC1C(=O)NC[C@H](O)c1ccccc1` (stereo partly drawn) [Exemplary Compound 1-3, N—((R)-2-hydroxy-2-phenylethyl)-2-isopropyl-5,5-dimethyl cyclohexane carboxamide], for which, in data set [1] (30 ppm aqueous solution), the “persistence: cool-feeling lasted for” value was ≥ 60 min, the “start of the cool-feeling” value is given as “strong cool-feeling was felt when the exemplary compound (1-3) was put in the mouth” and the intensity of cool-feeling result was “very strong”.

For orientation: melting point means the temperature of the solid-liquid transition. For the compound `CC(C)C1CCC(C)(C)CC1C(=O)NCC(=O)c1ccccc1` (stereo not shown) [Exemplary Compound 1-5, 2-isopropyl-5,5-dimethyl-N-(2-oxo-2-phenylethyl) cyclohexane carboxamide], the melting point lay in the range of 85 to 88 °C. Further, in data set [1] (30 ppm aqueous solution), the “persistence: cool-feeling lasted for” value is ≥ 60 min, the “start of the cool-feeling” value is reported as “gradually felt strongly” and the intensity of cool-feeling entry is listed as “very strongly at the peak time”.

The compound `CC(CNC(=O)C1CC(C)(C)CCC1C(C)C)c1ccccc1` (stereo not shown) [Exemplary Compound 1-6, 2-isopropyl-5,5-dimethyl-N-(2-phenylpropyl) cyclohexane carboxamide] registered a melting point of 80 to 85 °C.

In the case of `CC(C)C1CCC(C)(C)CC1C(=O)NC[C@@H](C)c1ccccc1` (stereo partly drawn) [Exemplary Compound 1-7, 2-isopropyl-5,5-dimethyl-N—((S)-2-phenylpropyl) cyclohexane carboxamide], the melting point is 125 to 133 °C.

`CC(C)C1CCC(C)(C)CC1C(=O)NC[C@H](C)c1ccccc1` (stereo partly drawn) [Exemplary Compound 1-8, 2-isopropyl-5,5-dimethyl-N—((R)-2-phenylpropyl) cyclohexane carboxamide] yielded a melting point of 127 to 134 °C.

Compound `CC(C)C1CCC(C)(C)CC1C(=O)NCCc1ccc(O)cc1` (stereo not shown) [Exemplary Compound 1-9, N-(4-hydroxyphenylethyl)-2-isopropyl-5,5-dimethyl cyclohexane carboxamide] yielded a melting point of 183 to 190 °C.

The compound `COc1ccc(CCNC(=O)C2CC(C)(C)CCC2C(C)C)cc1` (stereo not shown) [Exemplary Compound 1-10, 2-isopropyl-N-(4-methoxyphenylethyl)-5,5-dimethyl cyclohexane carboxamide] yielded a melting point of 86 to 88 °C.

`COc1ccc(CCNC(=O)C2CC(C)(C)CCC2C(C)C)cc1OC` (stereo not shown) [Exemplary Compound 1-12, N-(3,4-dimethoxyphenylethyl)-2-isopropyl-5,5-dimethyl cyclohexane carboxamide] registered a melting point of 85 to 89 °C.

Regarding `CC(C)C1CCC(C)(C)CC1C(=O)NCCc1ccccc1` (stereo not shown) [Exemplary Compound 1-13, 2-isopropyl-5,5-dimethyl-N-phenylethyl cyclohexane carboxamide], the melting point lay within 90 to 93 °C.
